# Results from patent publication US6767918B2, “N-(aryl/heteroarylacetyl) amino acid esters, pharmaceutical compositions comprising same, and methods for inhibiting β-amyloid peptide release and/or its synthesis by use of such compounds” (Athena Neurosciences, Inc., priority 1996, dated 2004).
row,Structure (SMILES),melting point [°C]
1,"Cc1ccc(CC(=O)NC(C)C(=O)OCC(C)C)cc1 (racemic) [Example 6, N-[(4-methylphenyl)acetyl]-D,L-alanine iso-butyl ester]",102 to 104
2,"CC(C)COC(=O)C(C)NC(=O)Cc1cccnc1 (racemic) [Example 7, N-[(3-pyridyl)acetyl]-D,L-alanine iso-butyl ester]",62 to 64
3,"CC(C)COC(=O)C(C)NC(=O)Cc1ccncc1 (racemic) [Example 12, N-[(4-pyridyl)acetyl]-D,L-alanine iso-butyl ester]",64 to 66
4,"CC(C)COC(=O)[C@H](C)NC(=O)Cc1ccc(Cl)cc1 [Example 4, N-[(4-chlorophenyl)acetyl]-L-alanine iso-butyl ester]",111 to 113
5,"CC(C)COC(=O)[C@H](C)NC(=O)Cc1ccc(Cl)c(Cl)c1 [Example 5, N-[(3,4-dichlorophenyl)acetyl]-L-alanine iso-butyl ester]",81 to 83
6,"CC(C)COC(=O)[C@H](C)NC(=O)Cc1cccc2ccccc12 [Example 8, N-[(1-naphthyl)acetyl]-L-alanine iso-butyl ester]",69 to 73
7,"CC(C)COC(=O)[C@H](C)NC(=O)Cc1ccc2ccccc2c1 [Example 9, N-[(2-naphthyl)acetyl]-L-alanine iso-butyl ester]",128 to 129
8,"CC(C)COC(=O)[C@H](C)NC(=O)Cc1ccccc1 [Example 13, N-(phenylacetyl)-L-alanine iso-butyl ester]",45 to 47
9,"CCOC(=O)[C@H](C)NC(=O)Cc1cc(F)cc(F)c1 [Example 64, N-[(3,5difluorophenyl)acetyl]alanine ethyl ester]",93 to 95
10,"CC(C)COC(=O)[C@H](C)NC(=O)CC1CCCCC1 [Example 70, N-(cyclohexylacetyl)-L-alanine iso-butyl ester]",92 to 93
11,"CC(C)COC(=O)[C@H](C)NC(=O)CC1CCCC1 [Example 71, N-(cyclopentylacetyl)-L-alanine iso-butyl ester]",62 to 64
12,"CC(C)COC(=O)[C@H](C)NC(=O)CC1=CCCCC1 [Example 72, N-[(cyclohex-1-enyl)acetyl]-L-alanine iso-butyl ester]",49 to 51
